Test results from PubChem BioAssay AID2765 (Broad Institute, 2010).
Activity calls are given as the source filed them.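 The calls were made as follows: active = half-maximal concentration for the rise in caspase light signal at or below ten times the top tested dose; inconclusive = flat fit between 30% and 70% activity, or unreliable curve fit; inactive = the rest.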

Tested on: MEF A1-2A-BIM cells, caspase 3/7 luminescence, 3 h
Test: inducers of caspase signal in A1-dependent MEFs – cell-based, luminescence, retest, A1 inhibitor project, dose response (AID 2765)

Row | Compound | EC50
1 | O=C(CN(C(=O)CCC(=O)Nc1nccs1)c1cccc(F)c1)NCc1ccccc1 | > 35 µM (inactive)
2 | CN1C(C(=O)Nc2cccc(O)c2)=CC(c2ccco2)=NS1(=O)=O | > 35 µM (inactive)
3 | COc1ccc(C2Nc3ccc4ccccc4c3-c3c2c(=O)oc2ccccc32)cc1 (stereo not given) | 11 µM
4 | Clc1ccccc1CN(Cc1ccccc1)c1ncnc2nc[nH]c12 | > 35 µM (inactive)
5 | COc1oc(-c2ccccc2)nc1C(F)(F)F | > 35 µM (inactive)
6 | CCC(=O)c1ccc(N2CCN(C(=O)Cc3ccccc3)CC2)c(F)c1 | > 35 µM (inactive)
7 | O=C1CC(C(=O)Nc2ccccc2)C2(CCCCC2)O1 (stereo not given) | > 35 µM (inactive)
8 | CCCCCCC(=O)Nc1cc2c(C)cc(=O)oc2cc1C | > 35 µM (inactive)
9 | COC(=O)[C@@]1(C)CC[C@]2(C)CC[C@@]3(C)C(=CC(=O)C4[C@@]5(C)CC[C@H](O)C(C)(C)[C@@H]5CC[C@]43C)[C@H]2C1 (stereo not given in full) | > 35 µM (inactive)
10 | O=C(Nc1ccc2oc(-c3ccccc3F)nc2c1)c1ccccc1F | > 35 µM (inactive)
11 | O=C(Cn1c(=O)c2cccn2c2cccnc21)N1CCN(c2ccc(Cl)cc2)CC1 | > 35 µM (inactive)
12 | CCc1cccc(NC(=O)C2CCN(S(=O)(=O)c3ccc4c(c3)NC(=O)CO4)CC2)c1 | > 35 µM (inactive)
13 | COc1cc(/C=C/C(=O)c2ccc([N+](=O)[O-])o2)ccc1O | > 35 µM (inactive)
14 | Cc1ccccc1[C@]1(C)ON(c2ccccc2C(F)(F)F)C1=O | > 35 µM (inactive)
15 | O=C1C=CC(=O)N1c1cccc(-c2ccccc2)c1 | > 35 µM (inactive)
16 | COc1ccc(CNC(=O)Cc2cccs2)cc1OC | > 35 µM (inactive)
17 | COC(=O)C1=C(C)N(Cc2ccccc2)C(=NCc2cc(OC)c(OC)c(OC)c2)N[C@H]1c1ccccc1 | > 35 µM (inactive)
18 | O=C(CSc1ccc2ccccc2c1)NCCc1ccc(O)c(O)c1 | > 35 µM (inactive)
19 | O=C(COc1ccccc1[N+](=O)[O-])Nc1ccc(NC(=O)c2cc3ccccc3o2)cc1 | 27.4 µM
20 | Cc1cc(C)n2nc(SCC(=O)NC(=O)c3ccccc3)nc2n1 | > 35 µM (inactive)
21 | O=C(Cc1ccc(-n2cccc2)cc1)NC1CCCCC1 | > 35 µM (inactive)
22 | CCCCNC(=O)c1ccc2nc(-c3ccco3)c(-c3ccco3)nc2c1 | > 35 µM (inactive)
23 | CCCNC(=O)C(Cc1ccccc1)NC(=O)Cc1ccccc1 (stereo not given) | > 35 µM (inactive)
24 | O=P(C(c1c[nH]c2ccccc12)N1CCOCC1)(N1CCOCC1)N1CCOCC1 (stereo not given) | > 35 µM (inactive)

Row | Compound | EC50
25 | CCOC(=O)[C@@H]1[C@H]2COc3ccc(Br)cc3[C@H]2N2C(=O)N(c3ccc(Cl)cc3)C(=O)[C@@]12C | > 35 µM (inactive)
26 | Cc1ccc2nc(N(CCCN(C)C)C(=O)c3ccc(S(=O)(=O)N4CCc5ccccc5C4)cc3)sc2c1 | > 35 µM (inactive)
27 | COc1cc(CN2CCCC(C(=O)Nc3ccccc3Oc3cccnc3)C2)ccc1F (stereo not given) | > 35 µM (inactive)
28 | CCN(CC)CCCN=C(C)c1c(O)n(-c2ccccc2)c(=O)[nH]c1=O | > 35 µM (inactive)
29 | CSc1ccccc1NC(=O)CCn1c(=O)sc2ccccc21 | > 35 µM (inactive)
30 | CCN(CC)C1CCN(C(=O)c2ccc(OC3CCN(CCc4ccccc4)CC3)cc2)C1 (stereo not given) | > 35 µM (inactive)
31 | CCc1ccc(CN/C=C/C(=O)c2ccc(Br)cc2)cc1 | > 35 µM (inactive)
32 | COc1ccccc1CCC(=O)Nc1ccc(S(=O)(=O)Nc2nccs2)cc1 | > 35 µM (inactive)
33 | CCN(C[C@H]1N[C@@](CC)(C(=O)OC)[C@H]2C(=O)N(Cc3ccccc3)C(=O)[C@@H]12)C(=O)c1ccc(F)cc1 | > 35 µM (inactive)
34 | CC(=O)[C@]1(O)Cc2c(O)c3c(c(O)c2[C@@H](O[C@H]2C[C@H](N)[C@H](O)[C@H](C)O2)C1)C(=O)c1ccccc1C3=O | > 35 µM (inactive)
35 | CC(C)CCN1NC2(CCCC(C)C2)NC1=S (stereo not given) | > 35 µM (inactive)
36 | C=CCn1c(SCc2ccc(F)cc2)nnc1-c1sc2nc(C)cc(C)c2c1N | > 35 µM (inactive)
37 | COc1ccc(C(CNC(=O)c2cc(S(=O)(=O)NCc3ccco3)ccc2C)N(C)C)cc1 (stereo not given) | > 35 µM (inactive)
38 | COc1ccc(N2C(=O)CCC(C(=O)O)C2c2ccc(OC)c(OC)c2)cc1 (stereo not given) | > 35 µM (inactive)
39 | CCOC(=O)COc1ccccc1/C=C\[N+](=O)[O-] | 5.85 µM
40 | CCOc1cc(/C=C2/C(=N)N3C=CSC3=NC2=O)ccc1OCCCOc1ccccc1C | 18 µM
41 | Cc1cc(C2C(C#N)=C(N)SC(N)=C2C#N)c(C)s1 | > 35 µM (inactive)
42 | O=C(/C=C/c1ccc(Br)cc1)c1ccc(NC2=NCCCS2)cc1 | > 35 µM (inactive)
43 | FC(F)(F)c1cccc(Cc2noc(CN3CCCC(OCc4ccccn4)C3)n2)c1 (stereo not given) | > 35 µM (inactive)
44 | N#Cc1cc(C(=O)c2cc(Br)ccc2O)cn(C2CC2)c1=O | > 35 µM (inactive)
45 | Clc1ccc(C(Cn2ccnc2)OCc2c(Cl)cccc2Cl)c(Cl)c1 (stereo not given) | > 35 µM (inactive)
46 | Cc1cc(NC(=O)COC(=O)C2=NN(c3ccccc3)C(=O)CC2)c([N+](=O)[O-])cc1C | > 35 µM (inactive)
47 | C=C1CCc2c([nH]c3ccc(OCC(C)C)cc23)C1=O | 15.1 µM
48 | CCc1ccccc1NC(=O)C(CC)Sc1nc2cc3c(cc2c(=O)n1Cc1ccco1)OCO3 (stereo not given) | > 35 µM (inactive)

Row | Compound | EC50
49 | N#C/C(=C\c1ccc(N2CCOCC2)o1)c1ccccc1 | > 35 µM (inactive)
50 | Cc1ccc(S(=O)(=O)n2cc(-c3ccccc3)c3ccccc32)cc1 | > 35 µM (inactive)
51 | Cc1ccc(NC(=O)c2ccc(N/N=C/c3cccc(O)c3)c([N+](=O)[O-])c2)cc1 | 21.5 µM
52 | COc1ccc(NS(=O)(=O)c2cc(NC(=O)c3ccc(Cl)cc3)ccc2N2CCOCC2)cc1 | > 35 µM (inactive)
53 | COc1ccccc1C(=O)NCCC(=O)N1CCN(S(=O)(=O)c2ccc(Cl)cc2)CC1 | > 35 µM (inactive)
54 | COCc1cc(C)nc(SCC(=O)Nc2ccc3c(c2)OCO3)c1C#N | > 35 µM (inactive)
55 | O=S1(=O)CCOC[C@H](CC2CCCCC2)N1Cc1cccc(Cl)c1 | > 35 µM (inactive)
56 | O=C(NCc1ccccc1)c1ccc(C(=O)N(C2CCCCC2)C2CCCCC2)cc1 | > 35 µM (inactive)
57 | COc1ccc(C=C2C=C(C(C)(C)C)C(=O)C(C(C)(C)C)=C2)cc1OC | 5.77 µM
58 | Cc1ccc(NC(=O)Cn2ncc(Cl)c(Cl)c2=O)cc1S(=O)(=O)N1CCCCC1 | > 35 µM (inactive)
59 | Cc1cccc(NC(=S)NC2CCCC2)c1C | > 35 µM (inactive)
60 | COc1ccc(CCNC(=O)CCOc2ccc(C)cc2)cc1OC | > 35 µM (inactive)
61 | CCn1c(C)[n+](CCOC(C)=O)c2cc(Cl)c(Cl)cc21 | > 35 µM (inactive)
62 | Cc1ccc(OCCC(=O)Nc2ccc(C)c(F)c2)cc1 | > 35 µM (inactive)
63 | C=C1C(O)[C@@H]2O[C@]3(CC[C@H](/C=C/C(C)[C@@H]4CC(C)=CC5(O[C@H](C[C@@](C)(O)CO)CCC5O)O4)O3)CC[C@H]2O[C@@H]1C(O)CC(C)[C@H]1OC2(CCCCO2)CCC1C (stereo not given in full) | > 35 µM (inactive)
64 | Cc1cccc(NC(=O)/C(C#N)=C/c2cn(CC(=O)NCc3ccco3)c3ccccc23)c1 | 21.7 µM
65 | CCN(CC)c1ccc(C=NCCc2ccc(S(N)(=O)=O)cc2)cc1 | > 35 µM (inactive)
66 | N#CC(C#N)=C1C=CC=CN1/C(=C\c1ccccc1Cl)C(=O)c1ccccc1 | 7.34 µM
67 | Cc1n[nH]c(C)c1S(=O)(=O)N1CCC(C(=O)O)CC1 | > 35 µM (inactive)
68 | O=C(CSc1ncccc1C(=O)O)NC1CCCCC1 | > 35 µM (inactive)
69 | COc1ccccc1C(=O)N1CCN(Cc2ccc3c(c2)OCO3)CC1 | > 35 µM (inactive)
70 | COc1ccccc1NC(=O)c1ccc(S(=O)(=O)N2CCCC2)cc1 | > 35 µM (inactive)
71 | Cc1cc(Br)c2c(c1)C1(OCCO1)C(=O)N2 | > 35 µM (inactive)
72 | Cc1ccc(NC(=O)CSc2nc3nc(C)c(Br)cc3[nH]2)cc1F | > 35 µM (inactive)

Row | Compound | EC50
73 | Cc1cc(C)cc(C(=O)N2CC(=O)Nc3ccccc32)c1 | > 35 µM (inactive)
74 | O=C(/C=C/c1ccc(F)cc1)NC(=S)Nc1ccccc1C(=O)NC1CCCCC1 | > 35 µM (inactive)
75 | CC(=O)Nc1ccc(S(=O)(=O)N2CCCC3CCCCC32)cc1 (stereo not given) | > 35 µM (inactive)
76 | O=C(CBr)Nc1c2c(nn1-c1ccccc1)CSC2 | > 35 µM (inactive)
77 | Cc1cccc(Nc2nc(N)c([N+](=O)[O-])c(N3CCCC(C)C3)n2)c1 (stereo not given) | > 35 µM (inactive)
78 | CCOc1ccc(NC(=O)CSc2nnc(Cc3cccn3C)n2-c2ccc(F)cc2)cc1 | > 35 µM (inactive)
79 | O=C(c1cc(C2CC2)nn1-c1ccccc1)N1CCN(S(=O)(=O)c2cccc(F)c2)CC1 | > 35 µM (inactive)
80 | Cc1cc(C)cc(Cn2ncc(Cl)c(Cl)c2=O)c1 | > 35 µM (inactive)
81 | CCOc1ccc(OCc2ccc(C(=O)NN=Cc3ccc[nH]3)cc2)cc1 | > 35 µM (inactive)
82 | COc1ccc(NC(=O)c2ccco2)c(NC(=O)c2ccc([N+](=O)[O-])cc2)c1 | > 35 µM (inactive)
83 | COc1ccc(C(=O)Sc2ccc(Cl)cc2)cc1OC | > 35 µM (inactive)
84 | COc1ccc(S(=O)(=O)Nc2ccc(NC(C)=O)cc2)cc1 | > 35 µM (inactive)
85 | O=C(Nc1ccccc1)N(Cc1ccc(Cl)cc1)CC(O)C(F)(F)F (stereo not given) | > 35 µM (inactive)
86 | CN(C)CCCN(C(=O)c1ccc([N+](=O)[O-])s1)c1nc2cc3c(cc2s1)OCCO3 | > 16 µM (inactive)
87 | CC(=O)N1CCN(C2c3cccc4cccc(c34)C2NS(=O)(=O)c2ccccc2)CC1 (stereo not given) | > 35 µM (inactive)
88 | CCOC(=O)/C(=C\c1ccc([N+](=O)[O-])cc1)C(=O)c1cc(C(C)=O)c(Nc2ccccc2)s1 | 1.9 µM
89 | O=C(OCn1ncc(Cl)c(Cl)c1=O)c1cccc(C(F)(F)F)c1 | > 35 µM (inactive)
90 | CCCCc1ccc(-c2csc(/C(C#N)=C\c3ccc(C)o3)n2)cc1 | > 35 µM (inactive)
91 | CCc1nc(N=Nc2c(O)[nH]c3ccccc23)c2c3c(sc2n1)CCC3 | 20.8 µM
92 | Cc1cccc(C)c1NC(=O)C(Cl)C(=O)c1ccccc1 (stereo not given) | > 35 µM (inactive)
93 | Cc1nc(-c2ccc(F)cc2)c(CC(=O)N(C)CC(=O)Nc2ccccc2Cl)s1 | > 35 µM (inactive)
94 | O=C(c1c[nH]c2ccccc12)C(Cl)c1ccccc1 (stereo not given) | > 35 µM (inactive)
95 | Cc1ccc(C)c(N(C)C(=O)c2ccc3c(=O)n4c(nc3c2)CCCCC4)c1 | > 35 µM (inactive)
